Key:
[1] = tested on: CD146/CD166+ cells at the Cp stage; test: FACS for progenitors at the Cp stage; type: cell-based, human; conditions: with BMP4, 1 μM WNT-C59 or 100 ng/ml WNT3A
Description: WNT ligands treatment during chondrogenesis. For WNT ligands treatment during chondrogenesis, pellets were treated with either 10 ng ml^−1 TGF-β3 (control group) or a combination of 10 ng ml^−1 TGF-β3 and 100 ng ml^−1 individual WNT ligand (WNT2B, WNT3A, WNT4, WNT5B, or WNT7B, all from R&D system) in chondrogenic medium from d0 to d42 as appropriate. For WNT ligands treatment during the Cp stage, cells were supplemented with either 20 ng ml^−1 BMP4 (R&D Systems, #314-BP-010) alone (control group), a combination of 20 ng ml^−1 BMP4 and 1 μM WNT-059, or a combination of 20 ng ml^−1 BMP4 and 100 ng ml^−1 WNT3A (R&D Systems, #5036-WN-010) in mesodermal differentiation medium from d7 to d12.
FACS for progenitors. […] Data were analyzed using FlowJo software (version 10.5.3).

[2] = tested on: WNT2B, WNT3A, WNT4, WNT5B, WNT7B; test: Western blots of WNT proteins in d28 pellets; type: cell-based, human
Description: Western blots. To examine the effect of WNT-C59 on WNT inhibition in the pellets at protein levels, Western blot analysis was performed on d28 pellets with or without WNT-C59 treatments. Six to eight pellets per experimental group were pooled and digested with 0.04% Type II collagenase solution in DMEM/F12 for 1 h. Cells were washed once with PBS and lysed in RIPA buffer (Cell Signaling Technology, #9806S) with protease inhibitor (ThermoFisher, #87786) and phosphatase inhibitor (Santa Cruz Biotechnology, #sc-45044). Protein concentration was measured using the BCA Assay (Pierce). Ten micrograms of proteins for each well were separated on 10% sodium dodecyl sulfate-polyacrylamide gel electrophoresis gels with prestained molecular weight markers (Bio-Rad, 161-0374) and transferred to a polyvinylidene fluoride (PVDF) membrane. The PVDF membrane blots were incubated overnight at 4° C. with the following primary antibodies: anti-WNT2B (1:350, Abcam, ab178418), anti-WNT3A (1:1000, Abcam, ab81614), anti-WNT4 (1:500, Abcam, ab91226), anti-WNTSB (1:500, Abcam, ab93134), anti-WNT7B (1:2000, Abcam, ab155313) and anti-GAPDH (1:30000, Proteintech 60004-1-Ig) for loading control, respectively. […] Immunoblots were imaged and analyzed using the iBright FL1000 Imaging System (Thermo Fisher). […]

Structure (SMILES): Cc1cc(-c2ccc(CC(=O)Nc3ccc(-c4cccnc4)cc3)cc2)ccn1 [WNT-C59]
- percentage of CD146/CD166+ cells [1]: largely decreased
- WNT5B protein [2]: only moderately inhibited
- protein levels of WNT2B, WNT3A, WNT4, and WNT7B [2]: decreased
